Reference: patent US20250312355A1, “DHCR24 INHIBITORY COMPOUNDS” (ACADEMISCH ZIEKENHUIS LEIDEN (H.O.D.N. LUMC), priority 2022, published 2025)
Read-outs that look alike come from different tables or passages of the source.

Columns and labels:
HL-60 cells = test: IC50 determination: incorporation of 13C-acetate into cholesterol in HL-60 cells (GC-MS); type: cell-based; settings: Homo sapiens, read-out: HL60 assay activity
Procedure: Two test concentrations (1 μM and 50 μM) were used. The compounds were dissolved in ethanol or DMSO and the testing-stock solutions are prepared taking a final dilution of 1:100 into account. Ultimately 10 μL of testing stock solution were added to 990 μL of lipid-free medium containing 1% lipoprotein deficient serum (LPDS) without antibiotics. HL-60 cells (1×10^6 cells) were incubated in 24-well plates in 1.0 mL of medium consisting of 990 μL of lipid free medium with 1% LPDS and 10 μL of respective inhibitor solution.
For IC50 determination, the incorporation of labelled acetate in the target molecule cholesterol is being assessed and the protocol is altered in the following manner: to each well 10 μL of a sterile sodium 2-^13C-acetate solution (6.25 mg/mL) were added before the addition of the inhibitor solution, leading to a final ^13C-acetate concentration of 62.5 μg/mL. After saponification 3×25 μL aliquots are taken for protein determination applying the Bradford reagent. After work-up and silylation, GC-MS analysis allows the quantification ^13C incorporation into cholesterol according to the below given formula. The percentage inhibition (see formula) relative to untreated control samples (0% inhibition) was plotted against the logarithmic inhibitor concentration using Graph Pad Prism 4 (or higher). A bottom level constant equal to 0 is set as constraint using a sigmoidal dose-response model with a various slope. All samples are normalised to their protein. For each concentration the inhibitory percentage is determined in triplicate.
The above formula is the calculation formula for the percentage inhibition, where AS represents the area sample; AI.S.C. represents the area internal standard control; PCC represents the protein content control; AC represents the area control; AI.S.S. represents the area internal standard sample; and PCs represents the protein content sample.

male E3L.CETP mice [1] = test: E3L.CETP mice on high fat high cholesterol diet, SH42 for 8 weeks (hepatic steatosis, lipidomics, immunohistochemistry, plasma lipids); type: in vivo
male E3L.CETP mice [2] = test: E3L.CETP mice on HFCD, SH42 for 4 weeks, flow cytometry of hepatic immune cells; type: in vivo
From the text: Hemizygous APOE*3-Leiden […]) mice were crossbred with homozygous human cholesteryl ester transfer protein (CETP) transgenic mice to generate heterozygous E3L.CETP mice on a C57BL/6J background [[…] al., “Cholesteryl ester transfer protein decreases high-density lipoprotein and severely aggravates atherosclerosis in APOE*3-Leiden mice”; Arterioscler Thromb Vasc Biol 26, 2552-2559 (2006)]. Because of phenotypical heterogeneity of E3L. CETP mice, non-responder mice were identified by 4-hour fasting plasma lipid levels, i.e., total cholesterol levels <2 mM and triglyceride levels <2 mM, and excluded before special diet treatment. LXRα-deficient mice (also on C57BL/6J background), generated by Deltagen using gene-targeting methods as described [T. Plosch et al., “Abcg5/Abcg8-independent pathways contribute to hepatobiliary cholesterol secretion in mice”; Am J Physiol Gastrointest Liver Physiol, 291, […]-423 (2006)(33)] were provided by Tularik (San Francisco, CA, US). […] All animals received humane care according to the criteria outlined in the NIH “Guide for the Care and Use of Laboratory Animals”. All animal procedures were performed in conformance with the guidelines from Directive 2010/63/EU of the European Parliament on the protection of animals used for scientific purposes. At the age of 10-12 weeks, male E3L.CETP mice and LXRα-deficient mice were fed a high fat high cholesterol diet (HFCD; […] LXRα-deficient mice were treated with either SH42 (n=11 mice) or vehicle (n=10 mice) for 4 weeks to evaluate effects on hepatic steatosis and immune cells. In a rescue experiment, male E3L.CETP mice were fed with HFCD for 10 weeks first and cotreated with SH42 (0.5 mg mouse^-1) or vehicle (saline containing 3.3% ethanol and 3.3% Cremophor EL) 3 times per week by intraperitoneal injection for additional 8 weeks.

male E3L.CETP mice [3] = test: Rescue experiment: E3L.CETP mice on HFCD for 10 weeks, then SH42 for additional 8 weeks; type: in vivo
From the text: Hemizygous APOE*3-Leiden (E3L) mice were crossbred with homozygous human cholesteryl ester transfer protein (CETP) transgenic mice to generate heterozygous E3L.CETP mice on a C57BL/6J background [M. Westerterp et al., “Cholesteryl ester transfer protein decreases high-density lipoprotein and severely aggravates atherosclerosis in APOE*3-Leiden mice”; Arterioscler Thromb Vasc Biol 26, 2552-2559 (2006)]. Because of phenotypical heterogeneity of E3L. CETP mice, non-responder mice were identified by 4-hour fasting plasma lipid levels, i.e., total cholesterol levels <2 mM and triglyceride levels <2 mM, and excluded before special diet treatment. LXRα-deficient mice (also on C57BL/6J background), generated by Deltagen using gene-targeting methods as described [T. Plosch et al., “Abcg5/Abcg8-independent pathways contribute to hepatobiliary cholesterol secretion in mice”; Am J Physiol Gastrointest Liver Physiol, 291, G414-423 (2006)(33)] were provided by Tularik (San Francisco, CA, US). Mice were group-housed in individually ventilated cages in standard conditions at room temperature (22° C.) with 40±5% relative humidity and a 12-h light/dark (7 am lights on; 7 pm lights off) cycle. All animals received humane care according to the criteria outlined in the NIH “Guide for the Care and Use of Laboratory Animals”. All animal procedures were performed in conformance with the guidelines from Directive 2010/63/EU of the European Parliament on the protection of animals used for scientific purposes.
At the age of 10-12 weeks, male E3L.CETP mice and LXRα-deficient mice were fed a high fat high cholesterol diet (HFCD; Altromin, Germany) containing 60% (energy) fat and 1% (wt/wt) cholesterol, and were randomized into two groups treated with either the DHCR24 inhibitor compound of Example 11 [also referred to herein as SH42] (0.5 mg·mouse^−1) or vehicle (saline containing 3.3% ethanol and 3.3% Cremophor EL) 3 times per week by intraperitoneal injection. E3L.CETP mice were treated for 4 weeks (n=6 mice per group) and 8 weeks (n=8 mice per group) to evaluate effects on hepatic immune cells via flow cytometry analysis and hepatic steatosis via quantitative lipidomic analysis, respectively. LXRα-deficient mice were treated with either SH42 (n=11 mice) or vehicle (n=10 mice) for 4 weeks to evaluate effects on hepatic steatosis and immune cells. In a rescue experiment, male E3L.CETP mice were fed with HFCD for 10 weeks first and cotreated with SH42 (0.5 mg mouse^−1) or vehicle (saline containing 3.3% ethanol and 3.3% Cremophor EL) 3 times per week by intraperitoneal injection for additional 8 weeks.
Body weight was measured weekly. Body composition (i.e. fat body and lean body mass; EchoMRI-100; EchoMRI, Houston, TX, USA) was evaluated before and after intervention. Food intake was determined during the treatment period.

[4] = HL-60 cells, 24 h, 13C-acetate incorporation into cholesterol
[5] = 8 weeks, absolute concentration
[6] = after 8 weeks of treatment, vs control group
[7] = 10 weeks HFCD, then 8 weeks treatment

Compound: CC(=O)O[C@H]1CC[C@@]2(C)C(CC=C3[C@@H]4CC[C@H]([C@H](C)CCOC=O)[C@@]4(C)CC[C@@H]32)C1 (stereo partly drawn) [Example 34, (3S,20R)-20-(2-Formyloxyethyl)-pregn-7-en-3-yl Acetate]
- IC50 (HL-60 cells; [4]): 1000 nM

Compound: C[C@H](CO)[C@H]1CC[C@H]2C3=CCC4C[C@H](O)CC[C@]4(C)[C@H]3CC[C@]12C (stereo partly drawn) [Example 31, (3R,20S)-20-(Hydroxymethyl)-pregn-7-en-3-ol]
- IC50 (HL-60 cells; HL-60, 24 h): 280 nM

Compound: C[C@H](CSSc1ccccn1)C1CCC2C3=CCC4C[C@@H](O)CC[C@]4(C)C3CC[C@@]21C (some centres unmarked) [Example 5]
- IC50 (HL-60 cells; [4]): 417 nM

Compound: CC(=O)O[C@H]1CC[C@@]2(C)C(CC=C3C2CC[C@@]2(C)C3CCC2[C@H](C)COC=O)C1 (some centres unmarked) [Example 11]
- food intake (male E3L.CETP mice [1]; 0.5 mg/mouse i.p. 3 times per week, 8 weeks, vs vehicle): did not affect
- HFCD-induced body weight gain (male E3L.CETP mice [1]; 0.5 mg/mouse i.p. 3 times per week, vs control group): temporarily preventing
- fasting plasma glucose (male E3L.CETP mice [1]; 8 weeks): did not affect
- fasting plasma insulin (male E3L.CETP mice [1]; 8 weeks): did not affect
- homeostatic Model Assessment for Insulin Resistance (HOMA-IR) scores (male E3L.CETP mice [1]; 8 weeks): did not affect
- weight of various tissues (liver, white adipose tissue, kidney, heart, lung, spleen, brown adipose tissue) (male E3L.CETP mice [1]; 8 weeks): unchanged
- plasma levels of FFA, change (male E3L.CETP mice [1]; [5]): −16%
- plasma levels of total DAG (male E3L.CETP mice [1]; [5]): did not affect
- plasma levels of total TAG (male E3L.CETP mice [1]; [5]): did not affect
- plasma levels of CE, change (male E3L.CETP mice [1]; 8 weeks, absolute concentration, p=0.08): −24%
- hepatic F4/80 content, change (male E3L.CETP mice [1]; 8 weeks, immunohistochemistry): −29%
- number of hepatic crown-like structures, change (male E3L.CETP mice [1]; 8 weeks, immunohistochemistry): −79%
- hepatic free fatty acids (FFA), change (male E3L.CETP mice [1]; 8 weeks, liver): −16%
- other liver lipid classes, including CER, PC, PE and SM (relative) (male E3L.CETP mice [1]; 8 weeks, liver lipidomics): relative increase
- relative reduction of DAG in liver lipid class composition (male E3L.CETP mice [1]; 8 weeks, liver lipidomics): −22%
- relative reduction of TAG in liver lipid class composition (male E3L.CETP mice [1]; 8 weeks, liver lipidomics): −21%
- increase of hepatic desmosterol levels (male E3L.CETP mice [1]; 8 weeks, liver, vs vehicle): 10 fold
- circulating CE (relative, plasma lipidome) (male E3L.CETP mice [1]; 8 weeks, plasma): relatively decreased
- lactosylceramides (LCER), phosphatidylcholine (PC) and phosphatidylethanolamine (PE) (relative, plasma lipidome) (male E3L.CETP mice [1]; 8 weeks, plasma): relatively increasing
- hepatic steatosis score (HE staining), change (male E3L.CETP mice [1]; 8 weeks, vs control treatment): −58%
- liver lipid area, change (male E3L.CETP mice [1]; 8 weeks, vs control treatment): −35%
- body composition (lean body mass and fat body mass) (male E3L.CETP mice [1]; [6]): comparable to that of the control group
- body weight (male E3L.CETP mice [1]; [6]): comparable to that of the control group
- plasma desmosterol levels (male E3L.CETP mice [1]; plasma, from undetectable levels (<0.5 μg·mL^−1)): 3.1 ± 0.4 µg/mL
- circulating neutrophils (male E3L.CETP mice [2]): without affecting
- hepatic neutrophils, change (male E3L.CETP mice [2]): −50%
- monocytes in liver, change (male E3L.CETP mice [2]): −79%
- MHCII+/CD11c+ activated KCs (male E3L.CETP mice [2]; flow cytometry): did not significantly reduce
- MHCII−/CD11c− resting KCs, change (male E3L.CETP mice [2]; flow cytometry): +21%
- total Kupffer cells (KCs), change (male E3L.CETP mice [2]; flow cytometry): +44%
- total hepatic leukocytes, change (male E3L.CETP mice [2]; flow cytometry, p=0.09): −37%
- monocytes in blood, change (male E3L.CETP mice [2]; p=0.06): −43%
- body composition (male E3L.CETP mice [3]; [7]): did not significantly influence
- collagen content (liver fibrosis), change (male E3L.CETP mice [3]; [7]): −50%
- hepatic crown-like structures, change (male E3L.CETP mice [3]; [7]): −89%
- hepatic steatosis (male E3L.CETP mice [3]; [7]): No difference
- increase in plasma desmosterol levels (male E3L.CETP mice [3]; [7]): > 400 fold
- liver weight (male E3L.CETP mice [3]; [7]): No difference
- plasma alanine transaminase (ALT), change (male E3L.CETP mice [3]; [7]): −42%
- total body weight (male E3L.CETP mice [3]; [7]): did not significantly influence
- F4/80 positive area (male E3L.CETP mice [3]; mouse, in vivo): without significant influence

Compound: C[C@H](CO)C1CCC2C3CC=C4C[C@@H](O)CC[C@]4(C)C3CC[C@@]21C (some centres unmarked) [Example 29]
- IC50 (HL-60 cells; HL-60, 24 h): 3 nM

Compound: C=C(F)C(=O)N(C)C[C@@H](C)[C@H]1CC[C@H]2C3=CCC4C[C@@H](OC(C)=O)CC[C@]4(C)[C@H]3CC[C@]12C (stereo partly drawn) [Example 37, (3S,20S)-20-[(2-Fluoro-N-methylacrylamido)methyl]-pregn-7-en-3-yl Acetate]
- IC50 (HL-60 cells; [4]): 110 nM

Compound: CC(=O)O[C@H]1CC[C@@]2(C)C(CC=C3C2CC[C@@]2(C)C3CCC2[C@H](C)COC(=O)CN(C)C)C1 (some centres unmarked) [Example 25]
- IC50 (HL-60 cells; HL-60, 24 h): 6 nM

Compound: C[C@H](CO)C1CCC2c3ccc4c(c3CC[C@@]21C)CC[C@H](O)C4 (stereo partly drawn) [Example 33, (3S,20S)-20-(Hydroxymethyl)-pregn-5,7,9-trien-3-ol]
- IC50 (HL-60 cells; [4]): 175 nM

Compound: C=C(F)C(=O)OC[C@@H](C)C1CCC2c3ccc4c(c3CC[C@@]21C)CC[C@H](OC(C)=O)C4 (stereo partly drawn) [Example 35, (3S,20S)-20-[(2-Fluoroacryloyloxy)methyl]-pregn-5,7,9-trien-3-yl Acetate]
- IC50 (HL-60 cells; [4]): 130 nM

Compound: C[C@@H](CO)[C@H]1CC[C@H]2C3=CCC4C[C@@H](O)CC[C@]4(C)[C@H]3CC[C@]12C (stereo partly drawn) [Example 30, (3S,20R)-20-(Hydroxymethyl)-pregn-7-en-3-ol]
- IC50 (HL-60 cells; HL-60, 24 h): 300 nM
